From BindingDB's records for doi:10.1021/jm00133a021 (1981)

Target: Angiotensin-converting enzyme (ACE1)
Assay: Concentration required for 50% inhibition of Angiotensin I converting enzyme

Row | IC50 [µM] | SMILES
1 | 30 | CCCC(C(=O)O)N1CCCC(CSC(C)=O)C1=O (configuration not stated) [2-(3-Acetylsulfanylmethyl-2-oxo-piperidin-1-yl)-pentanoic acid]
2 | 35 | CC(=O)SCC1CCCN(C(C)C(=O)O)C1=O (configuration not stated) [2-(3-Acetylsulfanylmethyl-2-oxo-piperidin-1-yl)-propionic acid]
3 | 100 | CC(=O)SCC1CCCN(CC(=O)O)C1=O (configuration not stated) [(3-Acetylsulfanylmethyl-2-oxo-piperidin-1-yl)-acetic acid]
4 | 19 | CC(=O)SCC1CCCN(C(C(=O)O)c2ccccc2)C1=O (configuration not stated) [(3-Acetylsulfanylmethyl-2-oxo-piperidin-1-yl)-phenyl-acetic acid]
5 | 33 | CC(=O)SCC1CCN(CC(=O)O)C1=O (configuration not stated) [(3-Acetylsulfanylmethyl-2-oxo-pyrrolidin-1-yl)-acetic acid]
6 | 1 | O=C(O)CN1CCCC(CS)C1=O (configuration not stated) [(3-Mercaptomethyl-2-oxo-piperidin-1-yl)-acetic acid]
7 | 3.7 | O=C(O)CN1CCC(CS)C1=O (configuration not stated) [(3-Mercaptomethyl-2-oxo-pyrrolidin-1-yl)-acetic acid]
